For test [1], the target named is T1, Peroxisomal acyl-coenzyme A oxidase 3 (Homo sapiens, UniProt O15254).
T1 sequence (O15254 whole entry): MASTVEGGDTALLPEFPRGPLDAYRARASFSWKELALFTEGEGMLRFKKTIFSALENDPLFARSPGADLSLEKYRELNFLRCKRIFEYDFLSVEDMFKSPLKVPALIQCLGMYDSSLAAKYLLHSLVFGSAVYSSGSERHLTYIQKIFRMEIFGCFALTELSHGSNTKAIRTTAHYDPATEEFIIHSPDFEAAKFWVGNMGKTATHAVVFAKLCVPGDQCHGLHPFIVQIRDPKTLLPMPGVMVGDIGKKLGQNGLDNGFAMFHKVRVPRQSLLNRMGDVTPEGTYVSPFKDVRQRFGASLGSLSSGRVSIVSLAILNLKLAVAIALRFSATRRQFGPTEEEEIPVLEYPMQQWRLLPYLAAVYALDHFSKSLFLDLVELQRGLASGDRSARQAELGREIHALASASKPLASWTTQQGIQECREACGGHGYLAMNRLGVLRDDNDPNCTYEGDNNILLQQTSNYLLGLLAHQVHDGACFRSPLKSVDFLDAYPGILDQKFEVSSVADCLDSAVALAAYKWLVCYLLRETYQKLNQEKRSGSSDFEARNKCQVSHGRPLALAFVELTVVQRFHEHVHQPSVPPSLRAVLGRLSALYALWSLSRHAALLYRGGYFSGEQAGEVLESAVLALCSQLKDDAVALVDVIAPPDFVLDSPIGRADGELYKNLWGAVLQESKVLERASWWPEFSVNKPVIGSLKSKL

For a further test, the target named is Actin-related protein 2 (Homo sapiens, UniProt P61160).
In test [2] the target is BMP-2-inducible protein kinase (Homo sapiens, UniProt Q9NSY1).
Sequence of BMP-2-inducible protein kinase (Q9NSY1 whole entry): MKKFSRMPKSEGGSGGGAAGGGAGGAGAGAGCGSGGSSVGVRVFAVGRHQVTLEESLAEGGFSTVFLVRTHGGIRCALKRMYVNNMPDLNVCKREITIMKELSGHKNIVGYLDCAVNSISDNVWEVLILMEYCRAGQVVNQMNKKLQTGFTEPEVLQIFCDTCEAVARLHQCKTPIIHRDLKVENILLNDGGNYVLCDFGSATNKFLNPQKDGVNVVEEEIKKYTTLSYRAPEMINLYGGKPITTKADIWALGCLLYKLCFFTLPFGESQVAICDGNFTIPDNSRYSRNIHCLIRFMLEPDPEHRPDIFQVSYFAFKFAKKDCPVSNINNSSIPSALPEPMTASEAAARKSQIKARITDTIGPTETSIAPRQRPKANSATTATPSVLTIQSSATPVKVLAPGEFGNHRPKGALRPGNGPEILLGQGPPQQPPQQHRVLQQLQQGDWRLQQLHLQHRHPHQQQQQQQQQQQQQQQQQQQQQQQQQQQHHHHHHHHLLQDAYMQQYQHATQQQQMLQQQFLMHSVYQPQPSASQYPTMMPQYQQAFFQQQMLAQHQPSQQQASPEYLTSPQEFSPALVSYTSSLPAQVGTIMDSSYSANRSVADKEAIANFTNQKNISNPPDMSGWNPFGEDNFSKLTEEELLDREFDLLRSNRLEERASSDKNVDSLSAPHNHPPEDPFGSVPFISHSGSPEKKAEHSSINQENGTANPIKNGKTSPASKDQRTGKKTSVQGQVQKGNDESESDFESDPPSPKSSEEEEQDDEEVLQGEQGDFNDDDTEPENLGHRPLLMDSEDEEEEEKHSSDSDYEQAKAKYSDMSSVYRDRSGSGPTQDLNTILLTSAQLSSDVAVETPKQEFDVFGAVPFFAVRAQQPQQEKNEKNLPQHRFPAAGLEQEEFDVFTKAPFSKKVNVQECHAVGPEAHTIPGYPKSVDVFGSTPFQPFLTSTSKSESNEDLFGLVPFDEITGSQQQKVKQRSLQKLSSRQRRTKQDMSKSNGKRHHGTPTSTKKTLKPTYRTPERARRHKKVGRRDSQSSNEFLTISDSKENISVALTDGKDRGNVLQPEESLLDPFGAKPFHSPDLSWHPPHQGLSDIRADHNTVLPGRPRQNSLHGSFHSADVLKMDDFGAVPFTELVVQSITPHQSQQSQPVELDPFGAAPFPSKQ
Test [3] has as its target Calcium/calmodulin-dependent protein kinase type II subunit delta (Homo sapiens, UniProt Q13557).
Test [4] deals with T2, Calcium/calmodulin-dependent protein kinase type IV (Homo sapiens, UniProt Q16566).
T2 sequence (Q16566 whole entry): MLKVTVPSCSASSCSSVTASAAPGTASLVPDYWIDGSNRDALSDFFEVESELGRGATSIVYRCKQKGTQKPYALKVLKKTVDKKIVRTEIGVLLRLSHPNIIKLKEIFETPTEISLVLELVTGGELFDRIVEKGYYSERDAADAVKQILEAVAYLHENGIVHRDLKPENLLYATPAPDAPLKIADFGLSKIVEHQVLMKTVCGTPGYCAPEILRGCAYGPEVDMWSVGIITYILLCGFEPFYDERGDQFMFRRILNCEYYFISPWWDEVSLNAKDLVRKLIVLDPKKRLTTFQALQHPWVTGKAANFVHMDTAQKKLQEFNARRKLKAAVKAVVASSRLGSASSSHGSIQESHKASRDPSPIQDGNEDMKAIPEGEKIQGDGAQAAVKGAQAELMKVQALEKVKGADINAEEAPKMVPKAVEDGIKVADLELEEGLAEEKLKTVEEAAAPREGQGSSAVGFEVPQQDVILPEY

Test [5] addresses Cyclin-dependent kinase 6 (Homo sapiens, UniProt Q00534).
For test [6], the target named is Casein kinase I isoform gamma-1 (Homo sapiens, UniProt Q9HCP0).
In test [7] the target is T3, Receptor-type tyrosine-protein kinase FLT3 (Homo sapiens, UniProt P36888).
T3 sequence (P36888 whole entry): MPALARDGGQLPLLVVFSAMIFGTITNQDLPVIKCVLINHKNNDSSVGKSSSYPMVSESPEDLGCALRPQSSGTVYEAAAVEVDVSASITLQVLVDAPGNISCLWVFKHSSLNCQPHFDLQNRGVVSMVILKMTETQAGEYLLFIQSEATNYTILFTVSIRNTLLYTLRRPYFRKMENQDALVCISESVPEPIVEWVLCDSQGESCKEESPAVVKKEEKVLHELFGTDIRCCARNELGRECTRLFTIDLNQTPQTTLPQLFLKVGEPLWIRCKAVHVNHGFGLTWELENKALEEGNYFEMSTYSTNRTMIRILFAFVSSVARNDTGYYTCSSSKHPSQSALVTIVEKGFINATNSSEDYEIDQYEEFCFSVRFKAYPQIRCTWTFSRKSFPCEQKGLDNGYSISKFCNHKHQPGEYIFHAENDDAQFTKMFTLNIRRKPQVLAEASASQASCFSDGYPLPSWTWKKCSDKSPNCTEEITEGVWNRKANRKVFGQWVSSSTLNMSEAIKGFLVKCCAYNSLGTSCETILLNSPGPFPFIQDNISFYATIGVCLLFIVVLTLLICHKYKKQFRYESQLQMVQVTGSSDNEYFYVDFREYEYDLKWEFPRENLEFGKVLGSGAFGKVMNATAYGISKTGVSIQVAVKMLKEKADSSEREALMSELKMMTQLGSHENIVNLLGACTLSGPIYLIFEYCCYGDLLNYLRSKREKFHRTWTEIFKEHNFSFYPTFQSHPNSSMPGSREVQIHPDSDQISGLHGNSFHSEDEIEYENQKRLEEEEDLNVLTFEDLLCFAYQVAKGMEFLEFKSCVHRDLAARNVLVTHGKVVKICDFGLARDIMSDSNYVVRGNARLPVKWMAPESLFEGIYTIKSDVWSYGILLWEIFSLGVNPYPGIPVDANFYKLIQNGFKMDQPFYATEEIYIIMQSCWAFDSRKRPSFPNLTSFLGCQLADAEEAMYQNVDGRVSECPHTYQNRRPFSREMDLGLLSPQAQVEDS

Test [8] addresses Protein kinase C alpha type (Homo sapiens, UniProt P17252).
For test [9], the target named is Ras-related protein Rab-6A (Homo sapiens, UniProt P20340).
Sequence of Ras-related protein Rab-6A (P20340 whole entry): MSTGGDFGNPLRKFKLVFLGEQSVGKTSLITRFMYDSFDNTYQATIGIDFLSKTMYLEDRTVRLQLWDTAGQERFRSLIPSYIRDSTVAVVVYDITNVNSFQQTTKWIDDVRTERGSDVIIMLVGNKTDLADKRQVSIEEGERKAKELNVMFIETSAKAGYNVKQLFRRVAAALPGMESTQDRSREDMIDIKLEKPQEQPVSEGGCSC
The target of test [10] is GTP-binding nuclear protein Ran (Homo sapiens, UniProt P62826).
Test [11] concerns the target Receptor-interacting serine/threonine-protein kinase 2 (Homo sapiens, UniProt O43353).
The target of another test is Myosin-14 (Homo sapiens, UniProt Q7Z406).
Sequence of Myosin-14 (Q7Z406 whole entry): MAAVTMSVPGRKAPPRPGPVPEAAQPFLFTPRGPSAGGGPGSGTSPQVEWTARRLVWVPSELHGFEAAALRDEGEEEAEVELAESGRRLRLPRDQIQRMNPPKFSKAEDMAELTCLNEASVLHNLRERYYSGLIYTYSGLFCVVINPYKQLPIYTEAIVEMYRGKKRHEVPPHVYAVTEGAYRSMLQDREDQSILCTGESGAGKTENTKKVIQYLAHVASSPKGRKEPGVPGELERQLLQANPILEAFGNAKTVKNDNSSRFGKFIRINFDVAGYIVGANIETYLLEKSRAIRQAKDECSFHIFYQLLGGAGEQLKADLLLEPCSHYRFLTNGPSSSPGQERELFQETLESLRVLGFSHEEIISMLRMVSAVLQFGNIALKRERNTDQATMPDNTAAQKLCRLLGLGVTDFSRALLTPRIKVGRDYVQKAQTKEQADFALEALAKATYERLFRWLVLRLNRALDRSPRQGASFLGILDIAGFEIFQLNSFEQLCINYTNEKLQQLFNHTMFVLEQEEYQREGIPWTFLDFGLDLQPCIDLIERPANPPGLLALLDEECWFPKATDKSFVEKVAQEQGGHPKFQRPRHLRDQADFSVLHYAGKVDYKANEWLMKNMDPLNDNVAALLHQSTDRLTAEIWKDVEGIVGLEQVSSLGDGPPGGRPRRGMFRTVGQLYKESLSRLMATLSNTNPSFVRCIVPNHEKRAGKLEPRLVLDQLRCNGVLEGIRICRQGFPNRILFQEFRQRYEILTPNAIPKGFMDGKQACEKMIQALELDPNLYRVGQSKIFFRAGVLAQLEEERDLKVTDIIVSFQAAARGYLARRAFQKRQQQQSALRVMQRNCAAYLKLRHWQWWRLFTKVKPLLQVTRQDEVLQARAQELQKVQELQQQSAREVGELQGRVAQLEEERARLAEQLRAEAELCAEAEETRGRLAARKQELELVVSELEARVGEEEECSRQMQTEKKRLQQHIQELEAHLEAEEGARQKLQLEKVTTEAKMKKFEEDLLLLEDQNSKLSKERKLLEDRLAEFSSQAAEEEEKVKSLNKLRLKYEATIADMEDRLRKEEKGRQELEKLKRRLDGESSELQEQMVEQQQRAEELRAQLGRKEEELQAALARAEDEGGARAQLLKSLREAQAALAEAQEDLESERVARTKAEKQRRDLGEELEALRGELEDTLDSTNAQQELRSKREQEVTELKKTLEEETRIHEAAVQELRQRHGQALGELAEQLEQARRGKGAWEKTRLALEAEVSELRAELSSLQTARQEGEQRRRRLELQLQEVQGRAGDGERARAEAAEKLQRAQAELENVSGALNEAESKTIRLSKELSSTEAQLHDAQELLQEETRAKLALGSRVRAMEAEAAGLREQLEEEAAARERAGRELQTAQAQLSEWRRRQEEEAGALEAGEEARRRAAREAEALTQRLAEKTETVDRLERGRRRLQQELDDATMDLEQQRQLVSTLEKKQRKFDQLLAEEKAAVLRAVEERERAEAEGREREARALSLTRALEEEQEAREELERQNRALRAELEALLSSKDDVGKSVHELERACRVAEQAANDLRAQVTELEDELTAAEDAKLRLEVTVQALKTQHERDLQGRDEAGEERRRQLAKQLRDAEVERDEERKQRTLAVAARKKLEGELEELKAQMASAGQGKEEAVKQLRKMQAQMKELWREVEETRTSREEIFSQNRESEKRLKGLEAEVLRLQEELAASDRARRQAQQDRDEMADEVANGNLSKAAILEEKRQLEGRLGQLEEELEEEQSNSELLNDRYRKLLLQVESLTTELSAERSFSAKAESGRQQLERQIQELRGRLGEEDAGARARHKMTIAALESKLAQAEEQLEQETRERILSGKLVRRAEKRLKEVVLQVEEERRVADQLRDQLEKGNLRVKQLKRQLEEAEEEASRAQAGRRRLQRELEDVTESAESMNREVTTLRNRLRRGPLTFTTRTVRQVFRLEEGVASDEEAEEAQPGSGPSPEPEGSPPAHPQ

SMILES strings stand for the structures. Activity calls are given as the source filed them. Cut-off read from the data, not from the text of the source, for most assays here: actives have a measured Kd and inactives only a lower limit.
Note: in the data inactive means no Kd found up to 30 µM.

Sequence of Cyclin-dependent kinase 6 (Q00534 whole entry, canonical isoform): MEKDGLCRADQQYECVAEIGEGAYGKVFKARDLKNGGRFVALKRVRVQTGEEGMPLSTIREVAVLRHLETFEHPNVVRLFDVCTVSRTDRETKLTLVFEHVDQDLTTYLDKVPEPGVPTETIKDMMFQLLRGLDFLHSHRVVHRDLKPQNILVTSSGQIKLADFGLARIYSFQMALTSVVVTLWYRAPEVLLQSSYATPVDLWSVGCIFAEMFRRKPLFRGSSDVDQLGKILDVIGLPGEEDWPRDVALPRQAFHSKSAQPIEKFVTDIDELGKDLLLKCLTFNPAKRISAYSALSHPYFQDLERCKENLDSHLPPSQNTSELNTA
Sequence of Receptor-interacting serine/threonine-protein kinase 2 (O43353 whole entry): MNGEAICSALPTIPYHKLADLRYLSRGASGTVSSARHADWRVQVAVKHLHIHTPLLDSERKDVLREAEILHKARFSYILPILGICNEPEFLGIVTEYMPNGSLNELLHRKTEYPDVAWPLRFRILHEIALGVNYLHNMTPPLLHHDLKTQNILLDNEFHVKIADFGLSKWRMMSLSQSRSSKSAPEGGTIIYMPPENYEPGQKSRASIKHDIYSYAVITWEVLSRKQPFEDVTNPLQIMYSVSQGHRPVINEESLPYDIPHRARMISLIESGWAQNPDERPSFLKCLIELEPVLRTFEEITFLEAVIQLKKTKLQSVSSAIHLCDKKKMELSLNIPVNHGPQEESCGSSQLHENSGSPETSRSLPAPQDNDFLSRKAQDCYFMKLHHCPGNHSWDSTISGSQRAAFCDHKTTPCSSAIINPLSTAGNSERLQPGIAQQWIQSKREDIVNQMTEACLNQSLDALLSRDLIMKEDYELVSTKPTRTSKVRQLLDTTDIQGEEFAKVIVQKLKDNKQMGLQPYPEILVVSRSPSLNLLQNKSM

Consider `COc1cc(OC)c(/C=C/S(=O)(=O)Cc2ccc(OC)c(NCC(=O)O)c2)c(OC)c1` [RIGOSERTIB], for which the Kd (in test [1]; at Actin-related protein 2; in test [2]; in test [3]; in [4]; in test [5]) was > 30 µM (inactive) in each case. The Kd in test [6], in test [7], in [8], in [9], in [10] and in test [11] was > 30 µM (inactive) in each case.

As to `CC[C@H](Nc1ncnc2[nH]cnc12)c1nc2cccc(F)c2c(=O)n1-c1ccccc1` [IDELALISIB], the Kd (in test [1]; at Actin-related protein 2; in test [2]; in test [3]; in test [4]; in test [5]) was > 30 µM (inactive) in each case. Moreover, the Kd in [6], in test [7], in test [8], in test [9] and in test [11] was > 30 µM (inactive) throughout.

Take `Cc1ccc(S(=O)(=O)Nc2nc3ccccc3nc2Nc2ccc3nsnc3c2)cc1`: the Kd (in test [1]; on Actin-related protein 2; in test [2]; in [3]; in test [4]; in [5]) was > 30 µM (inactive) each time. Further, the Kd in test [6], in test [7], in test [8], in test [9], in [10] and in [11] was > 30 µM (inactive) in each case.

For the compound `O=C(Nc1cccc(Cl)c1)Nc1ncc(CCNc2ncnc3ccsc23)s1` [SNS-314], the equilibrium dissociation constant (Kd) in [1] was 0.026 µM (active); on Actin-related protein 2 it was > 30 µM (inactive); in test [2], > 30 µM (inactive); in test [4] it was > 30 µM (inactive); in test [5] it was > 30 µM (inactive); at Myosin-14, > 30 µM (inactive). In addition, the Kd in test [8], in test [9], in [10] and in [11] was > 30 µM (inactive) in each case.

For the compound `C1=C/COCc2cc(ccc2OCCN2CCCC2)Nc2nccc(n2)-c2cccc(c2)COC/1` [PACRITINIB], the Kd was > 30 µM (inactive) in [1]; 0.039 µM (active) in test [2]; > 30 µM (inactive) in test [3]; > 30 µM (inactive) in test [4]; > 30 µM (inactive) in test [5]; > 30 µM (inactive) in test [6]. For the same compound, the Kd was > 30 µM (inactive) on Myosin-14; 0.934 µM (active) in test [8]; > 30 µM (inactive) in test [9]; > 30 µM (inactive) in test [10]; > 30 µM (inactive) in test [11].

For `COc1cc(N2CCC(N3CCN(C)CC3)CC2)ccc1Nc1ncnc(Nc2ccccc2S(=O)(=O)C(C)C)n1` [ASP-3026], the Kd in [1] is > 30 µM (inactive); in [2], > 30 µM (inactive); in test [3] it was 0.704 µM (active); in test [4] it was > 30 µM (inactive); in test [5], > 30 µM (inactive); in test [6], > 30 µM (inactive). The dissociation constant (Kd) in test [7] is 0.627 µM (active); in test [8] it was > 30 µM (inactive); in test [9] it was > 30 µM (inactive); in test [10] it was > 30 µM (inactive); in test [11], > 30 µM (inactive).

Regarding `OCCn1cc(-c2cnc3nnn(Cc4ccc5ncccc5c4)c3n2)cn1` [PF-04217903], the Kd (in test [1]; at Actin-related protein 2; in [2]; in test [3]; in test [4]; in test [5]) was > 30 µM (inactive) throughout. The Kd (in test [6]; at Myosin-14; in test [8]; in [9]; in [10]; in test [11]) was > 30 µM (inactive) each time.

For the compound `Cc1c(F)cc(C(=O)NC2CC2)cc1-c1ccc(C(=O)NCC(C)(C)C)cn1` [LOSMAPIMOD], the Kd (in test [1]; on Actin-related protein 2; in test [2]; in [3]; in [4]; in [5]) was > 30 µM (inactive) each time. The Kd in test [6], in test [7], in [8], in [9] and in [11] was > 30 µM (inactive) each time.

As for `C=CC(=O)N1CCC(Oc2cc3c(Nc4ccc(Cl)c(Cl)c4F)ncnc3cc2OC)CC1` [POZIOTINIB], the Kd in test [1], in test [2], in test [3], in [4], in test [5] and in test [6] was > 30 µM (inactive) throughout. The Kd in [7] was > 30 µM (inactive); in [8], > 30 µM (inactive); in test [9], > 30 µM (inactive); in test [10] it was > 30 µM (inactive); in test [11] it was 0.048 µM (active).

With `CN(C)C(=O)c1cc2cnc(Nc3ccc(N4CCNCC4)cn3)nc2n1C1CCCC1` [RIBOCICLIB], the Kd in test [1] was > 30 µM (inactive); at Actin-related protein 2, > 30 µM (inactive); in test [2], > 30 µM (inactive); in test [3] it was 0.293 µM (active); in test [4] it was > 30 µM (inactive); in test [6] it was > 30 µM (inactive). Also, the Kd in test [7], in test [8], in test [9], in test [10] and in [11] was > 30 µM (inactive) throughout.
